The results in this text go back to patent US7723329B2, “Substituted-3-sulfonylindazole derivatives as 5-hydroxytryptamine-6 ligands” (Wyeth LLC, priority 2005, dated 2010).

SMILES strings stand for the structures. Where a name gives a salt, the structure may show the parent alone. Where only a bound is given, the exact number is not on record here.

In the assay the target is T1, human cloned 5-HT6 receptors (Homo sapiens, UniProt P50406).
T1 construct: expressed in transfected cells; host or cells: HeLa cells
T1 sequence (P50406 whole entry): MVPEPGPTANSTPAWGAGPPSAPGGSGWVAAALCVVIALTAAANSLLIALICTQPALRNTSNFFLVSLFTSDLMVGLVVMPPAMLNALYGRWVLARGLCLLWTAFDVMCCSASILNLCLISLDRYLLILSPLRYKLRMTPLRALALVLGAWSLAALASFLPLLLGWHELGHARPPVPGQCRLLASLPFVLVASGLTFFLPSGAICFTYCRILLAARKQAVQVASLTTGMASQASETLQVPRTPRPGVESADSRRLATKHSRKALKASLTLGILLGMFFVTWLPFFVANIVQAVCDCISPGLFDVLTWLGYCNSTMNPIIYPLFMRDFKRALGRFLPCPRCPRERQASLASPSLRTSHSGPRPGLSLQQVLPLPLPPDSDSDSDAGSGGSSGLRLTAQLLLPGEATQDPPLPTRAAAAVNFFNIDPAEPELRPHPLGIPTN
The assay is described as follows: 5-HT6 binding affinity, [3H]-LSD displacement. The conditions noted are these: membranes of Hela cells expressing human cloned 5-HT6 receptors; [3H]-LSD 3.0 nM; 120 minutes at room temperature. As to the method:
The affinity of test compounds for the serotonin 5-HT6 receptor was evaluated in the following manner. Cultured Hela cells expressing human cloned 5-HT6 receptors were harvested and centrifuged at low speed (1,000×g) for 10.0 minutes to remove the culture media. The harvested cells were suspended in half volume of fresh physiological phosphate buffered saline solution and recentrifuged at the same speed. This operation was repeated. The collected cells were then homogenized in ten volumes of 50 mM Tris.HCl (pH 7.4) and 0.5 mM EDTA. The homogenate was centrifuged at 40,000×g for 30.0 min and the precipitate was collected. The obtained pellet was resuspended in 10 volumes of Tris.HCl buffer and recentrifuged at the same speed. The final pellet was suspended in a small volume of Tris.HCl buffer and the tissue protein content was determined in aliquots of 10-25 μl volumes. […] The volume of the suspended cell membranes was adjusted to give a tissue protein concentration of 1.0 mg/ml of suspension. The prepared membrane suspension (10 times concentrated) was aliquoted in 1.0 ml volumes and stored at −70° C. until used in subsequent binding experiments.
The bound complex caught on the filter disk was allowed to air dry and the radioactivity is measured in a Packard TopCount® equipped with six photomultiplier detectors, after the addition of 40.0 μl Microscint®-20 scintillant to each shallow well. The unifilter plate was heat-sealed and counted in a PackardTopCount® with a tritium efficiency of 31.0%.
Specific binding to the 5-HT6 receptor was defined as the total radioactivity bound less the amount bound in the presence of 10.0 μM unlabeled methiothepin. Binding in the presence of varying concentrations of test compound was expressed as a percentage of specific binding in the absence of test compound. The results were plotted as log % bound versus log concentration of test compound. […] A linear regression line of data points was plotted, from which the IC50 value is determined and the Ki value is determined based upon the following equation: Ki=IC50/(1+L/KD) where L was the concentration of the radioactive ligand used and KD is the dissociation constant of the ligand for the receptor, both expressed in nM.
On to `CCNCCCOc1cccc2c(S(=O)(=O)c3cccc4ccccc34)nn(Cc3cccc(Cl)c3)c12` [Example 129], for which the inhibition constant (Ki) was > 45 nM. As for `CCNCCOc1ccc2c(c1)c(S(=O)(=O)c1cccc3ccccc13)nn2Cc1ccccc1` [Example 53, {2-[1-Benzyl-3-(naphthalene-1-sulfonyl)-1H-indazol-5-yloxy]-ethyl}-ethyl-amine], the inhibitory constant (Ki) lay in the range of 11 to 25 nM. In turn, `O=S(=O)(c1ccccc1)c1nn(Cc2cccc(Cl)c2)c2c(OCCN3CCCC3)cccc12` [Example 86] yielded a Ki of 26 to 35 nM.

In the case of `NCCOc1cccc2c(S(=O)(=O)c3cccc4ccccc34)nn(Cc3cccc(Cl)c3)c12` [Example 69, (2-{[1-(3-Chlorobenzyl)-3-(1-naphthylsulfonyl)-1-H-indazol-7-yl]oxy}ethyl) amine], the inhibition constant (Ki) fell in the range of 26 to 35 nM. Then `CN(C)CCCCOc1ccc2[nH]nc(S(=O)(=O)c3cccc4ccccc34)c2c1` [Example 64], with 0.01 to 10 nM; and `CCNCCOc1cccc2c(S(=O)(=O)c3cccc4ccccc34)n[nH]c12` [Example 79], with 11 to 25 nM; and `CN(C)CCOc1cc(F)cc2c(S(=O)(=O)c3cccc4ccccc34)n[nH]c12` [Example 115], with 11 to 25 nM. With `CN(C)CCOCc1ccc2[nH]nc(S(=O)(=O)c3cccc4ccccc34)c2c1` [Example 156, N,N-Dimethyl-2-{[3-(1-naphthylsulfonyl)-1H-indazol-5-yl]methoxy}ethanamine], the inhibition constant (Ki) fell in the range of 0.01 to 10 nM. `O=S(=O)(c1cccc2ccccc12)c1n[nH]c2ccc(OCCNC3CCCC3)cc12` [Example 35, Cyclopentyl-{2-[3-(naphthalene-1-sulfonyl)-1H-indazol-5-yloxy]-ethyl}-amine]: the inhibitory constant (Ki) was in the range of 0.01 to 10 nM. Then `O=S(=O)(c1cccc2ccccc12)c1n[nH]c2c(OCCN3CCCC3)cc(F)cc12` [Example 118], with 0.01 to 10 nM; and `CN(C)CCC(=O)Nc1cccc2c(S(=O)(=O)c3cccc4ccccc34)n[nH]c12` [Example 162, 3-Dimethylamino-N-[3-(naphthalene-1-sulfonyl)-1H-indazol-7-yl]-propionamide hydrochloride], with 0.01 to 10 nM; and `CN(C)CCN(C)Cc1ccc2[nH]nc(S(=O)(=O)c3cccc4ccccc34)c2c1` [Example 153, N,N, N′-Trimethyl-N′-{[3-(1-naphthylsulfonyl)-1H-indazol-5-yl]methyl}ethane-1,2-diamine], with 11 to 25 nM. For the molecule `CN(C)CCCc1ccc2[nH]nc(S(=O)(=O)c3ccccc3)c2c1` [Example 177, N,N-Dimethyl-N-{3-[3-(phenylsulfonyl)-1H-indazol-5-yl]propyl}amine trifluoroacetate], the inhibition constant Ki was in the range of 11 to 25 nM. Turning to `CCN(C)CCOc1ccc2c(c1)c(S(=O)(=O)c1cccc3ccccc13)nn2Cc1cccc(Cl)c1` [Example 55, {2-[1-(3-Chloro-benzyl)-3-(naphthalene-1-sulfonyl)-1H-indazol-5-yloxy]-ethyl}-ethyl-methyl-amine], the Ki was > 45 nM. Take `NCCOc1cc(F)cc2c(S(=O)(=O)c3ccccc3)n[nH]c12` [Example 140]: the inhibition constant Ki fell in the range of 0.01 to 10 nM. The molecule `CCCN(C)CCCCOc1ccc2[nH]nc(S(=O)(=O)c3cccc4ccccc34)c2c1` [Example 65] returned a Ki of 0.01 to 10 nM. Take `Cn1nc(S(=O)(=O)c2ccccc2)c2cccc(OCCN3CCCCC3)c21` [Example 105]: the Ki was > 45 nM.

`NCCOc1cccc2[nH]nc(S(=O)(=O)c3cccc4ccccc34)c12` [Example 141] yielded an inhibitory constant (Ki) of 11 to 25 nM. The same measure for `O=S(=O)(c1cccc2ccccc12)c1n[nH]c2c(OCCCN3CCCCC3)cccc12` [Example 138]: 36 to 45 nM; for `NCCCCOc1ccc2[nH]nc(S(=O)(=O)c3cccc4ccccc34)c2c1` [Example 68, (4-{[3-(1-naphthylsulfonyl)-1H-indazol-5-yl]oxy}butyl)amine]: 0.01 to 10 nM; for `O=S(=O)(c1cccc2ccccc12)c1n[nH]c2c(OCCN3CCCC3)cccc12` [Example 81]: 0.01 to 10 nM.

`CCNCCOc1cc(F)cc2c(S(=O)(=O)c3cccc4ccccc34)n[nH]c12` [Example 114] had a Ki of 0.01 to 10 nM. In the case of `CN(C)CCOc1ccc2c(c1)c(S(=O)(=O)c1cccc3ccccc13)nn2C` [Example 41, Dimethyl-{2-[1-methyl-3-(naphthalene-1-sulfonyl)-1H-indazol-5-yloxy]-ethyl}-amine], the Ki lay within 0.01 to 10 nM. For `CCN(C)CCCOc1ccc2[nH]nc(S(=O)(=O)c3cccc4ccccc34)c2c1` [Example 17, Ethyl-methyl-{3-[3-(naphthalene-1-sulfonyl)-1H-indazol-5-yloxy]-propyl}-amine], the Ki fell in the range of 0.01 to 10 nM. Then `CCNCCOc1ccc2[nH]nc(S(=O)(=O)c3ccccc3)c2c1` [Example 4, [2-(3-Benzenesulfonyl-1H-indazol-5-yloxy)-ethyl]-ethyl-amine], with 0.01 to 10 nM; and `CC1CN(Cc2ccc3[nH]nc(S(=O)(=O)c4cccc5ccccc45)c3c2)CC(C)N1` (centres unmarked) [Example 198], with 0.01 to 10 nM; and `NCCCOc1ccc2[nH]nc(S(=O)(=O)c3cccc4ccccc34)c2c1` [Example 26, 3-[3-(Naphthalene-1-sulfonyl)-1H-indazol-5-yloxy]-propylamine], with 0.01 to 10 nM. The same measure for `COc1cc(OCCN2CCCC2)c2c(c1)c(S(=O)(=O)c1cccc3ccccc13)nn2Cc1cccc(Cl)c1` [Example 123]: > 45 nM; for `O=S(=O)(c1cccc2ccccc12)c1nn(Cc2cccc(Cl)c2)c2ccc(OCCN3CCCC3)cc12` [Example 58, 1-(3-Chloro-benzyl)-3-(naphthalene-1-sulfonyl)-5-(2-pyrrolidin-1-yl-ethoxy)-1H-indazole]: 26 to 35 nM; for `CN(C)CCOc1cccc2c(S(=O)(=O)c3cccc4ccccc34)nn(C)c12` [Example 96]: > 45 nM. Then `CCNCCOc1cc(F)cc2c(S(=O)(=O)c3cccc4ccccc34)nn(Cc3cccc(Cl)c3)c12` [Example 108], with > 45 nM; and `CNCCCOc1cccc2c(S(=O)(=O)c3cccc4ccccc34)n[nH]c12` [Example 134], with 11 to 25 nM; and `NCCOc1ccc2[nH]nc(S(=O)(=O)c3cccc4ccccc34)c2c1` [Example 30, 2-[3-(Naphthalene-1-sulfonyl)-1H-indazol-5-yloxy]-ethylamine], with 0.01 to 10 nM. Regarding `O=C(c1ccc2[nH]nc(S(=O)(=O)c3cccc4ccccc34)c2c1)N1CCNCC1` [Example 202, 3-(1-Naphthylsulfonyl)-5-(piperazin-1 ylcarbonyl)-1H-indazole], the Ki is > 45 nM.

The molecule `NCCC(=O)Nc1ccc2c(S(=O)(=O)c3cccc4ccccc34)n[nH]c2c1` [Example 165, 3-Amino-N-[3-(naphthalene-1-sulfonyl)-1H-indazol-6-yl]-propionamide hydrochloride] had a Ki of 11 to 25 nM.

Take `CCN(CC)CCCOc1cccc2c(S(=O)(=O)c3cccc4ccccc34)nn(Cc3cccc(Cl)c3)c12` [Example 131]: the inhibitory constant (Ki) fell in the range of 11 to 25 nM. Take `O=S(=O)(c1cccc2ccccc12)c1n[nH]c2ccc(OCCCN3CCCC3)cc12` [Example 23, 3-(Naphthalene-1-sulfonyl)-5-(3-pyrrolidin-1-yl-propoxy)-1H-indazole]: the Ki lay within 0.01 to 10 nM. Regarding `COc1cc(OCCN(C)C)c2c(c1)c(S(=O)(=O)c1cccc3ccccc13)nn2Cc1cccc(Cl)c1` [Example 121], the Ki was > 45 nM. With `CNCCOc1cc(OC)cc2c(S(=O)(=O)c3cccc4ccccc34)n[nH]c12` [Example 124], the Ki was in the range of 11 to 25 nM. In turn, `CCNCCCCOc1ccc2[nH]nc(S(=O)(=O)c3cccc4ccccc34)c2c1` [Example 63] yielded a Ki of 0.01 to 10 nM.

Take `COc1cc(OCCN2CCCCC2)c2[nH]nc(S(=O)(=O)c3cccc4ccccc34)c2c1` [Example 126]: the inhibition constant (Ki) fell in the range of 0.01 to 10 nM. `C[C@H]1CN(Cc2ccc3[nH]nc(S(=O)(=O)c4cccc5ccccc45)c3c2)CCN1` [Example 199]: the Ki is 11 to 25 nM. Molecule `O=S(=O)(c1cccc2ccccc12)c1n[nH]c2ccc(OCCCNC3CCCC3)cc12` [Example 21, Cyclopentyl-{3-[3-(naphthalene-1-sulfonyl)-1H-indazol-5-yloxy]-propyl}-amine] yielded an inhibition constant Ki of 0.01 to 10 nM. The same measure for `CNCCOc1cccc2c(S(=O)(=O)c3ccccc3)n[nH]c12` [Example 88]: 0.01 to 10 nM; for `CCN(CC)CCOc1ccc2[nH]nc(S(=O)(=O)c3cccc4ccccc34)c2c1` [Example 33, Diethyl-{2-[3-(naphthalene-1-sulfonyl)-1H-indazol-5-yloxy]-ethyl}-amine]: 0.01 to 10 nM.

In the case of `CN(C)CCOc1cccc2c(S(=O)(=O)c3cccc4ccccc34)n[nH]c12` [Example 78], the Ki was in the range of 0.01 to 10 nM. `O=S(=O)(c1cccc2ccccc12)c1n[nH]c2ccc(OCCCN3CCCCC3)cc12` [Example 24, 3-(Naphthalene-1-sulfonyl)-5-(3-piperidin-1-yl-propoxy)-1H-indazole] had a Ki of 0.01 to 10 nM.
